Assay results published in ChEMBL document CHEMBL1201862, “PubChem BioAssay data set” (2004).
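A five-concentration, 48-hour dose response in 96-well plates underlies each endpoint, interpolated linearly between surrounding concentrations. Here, GI50 denotes the concentration required for 50% inhibition of growth.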 Activity calls are given as the source filed them. Cut-off read from the data, not from the text of the source: active = GI50 up to about 1.1 µM and inactive = higher.

Assays:
Assay in all cases: inhibition of tumour cell growth, NCI panel, 48 h
KM12 = system: KM12
NCI/ADR-RES = system: NCI/ADR-RES
NCI-H522 = system: NCI-H522
HT-29 = system: HT-29
MCF7 = system: MCF7
U-251 = system: U-251
OVCAR-4 = system: OVCAR-4
OVCAR-5 = system: OVCAR-5
HOP-92 = system: HOP-92
UO-31 = system: UO-31
OVCAR-8 = system: OVCAR-8
BT-549 = system: BT-549
MDA-N = system: MDA-N
MDA-MB-435 = system: MDA-MB-435
SNB-19 = system: SNB-19
DU-145 = system: DU-145
UACC-257 = system: UACC-257
M14 = system: M14
CAKI-1 = system: CAKI-1
NCI-H23 = system: NCI-H23
A498 = system: A498
EKVX = system: EKVX
Malme-3M = system: Malme-3M
SR = system: SR
786-0 = system: 786-0
HCT-15 = system: HCT-15
MOLT-4 = system: MOLT-4
SW-620 = system: SW-620
SF-295 = system: SF-295
CCRF-CEM = system: CCRF-CEM
NCI-H226 = system: NCI-H226
OVCAR-3 = system: OVCAR-3
NCI-H460 = system: NCI-H460
TK-10 = system: TK-10
HL-60 = system: HL-60
RXF 393 = system: RXF 393
RPMI-8226 = system: RPMI-8226
HOP-62 = system: HOP-62
SK-OV-3 = system: SK-OV-3
A549 = system: A549
HCT-116 = system: HCT-116
K562 = system: K562
MDA-MB-231 = system: MDA-MB-231
IGROV-1 = system: IGROV-1
T47D = system: T47D
SF-539 = system: SF-539
SN12C = system: SN12C
COLO 205 = system: COLO 205
LOX IMVI = system: LOX IMVI
SF-268 = system: SF-268
ACHN = system: ACHN
SNB-75 = system: SNB-75
PC-3 = system: PC-3
UACC-62 = system: UACC-62
Hs-578T = system: Hs-578T
SK-MEL-28 = system: SK-MEL-28
SK-MEL-5 = system: SK-MEL-5
SK-MEL-2 = system: SK-MEL-2

Q: For S=c1cc(-c2ccc3c(c2)OCO3)s[nH]1, which GI50 (KM12) is on record?
A: > 100 µM (inactive)

Q: And the GI50 (NCI/ADR-RES)?
A: > 100 µM (inactive)

Q: And the GI50 (NCI-H522)?
A: 5.81 µM (inactive)

Q: What about the GI50 (HT-29) of the same compound?
A: > 100 µM (inactive)

Q: And the GI50 (MCF7)?
A: > 100 µM (inactive)

Q: And the GI50 (U-251)?
A: > 100 µM (inactive)

Q: And the GI50 (OVCAR-4)?
A: > 100 µM (inactive)

Q: What about the GI50 (OVCAR-5) of the same compound?
A: > 100 µM (inactive)

Q: And the GI50 (HOP-92)?
A: > 100 µM (inactive)

Q: What about the GI50 (UO-31) of the same compound?
A: > 100 µM (inactive)

Q: And the GI50 (OVCAR-8)?
A: > 100 µM (inactive)

Q: And the GI50 (BT-549)?
A: > 100 µM (inactive)

Q: What about the GI50 (MDA-N) of the same compound?
A: > 100 µM (inactive)

Q: What about the GI50 (MDA-MB-435) of the same compound?
A: > 100 µM (inactive)

Q: What about the GI50 (SNB-19) of the same compound?
A: > 100 µM (inactive)

Q: And the GI50 (DU-145)?
A: > 100 µM (inactive)

Q: And the GI50 (UACC-257)?
A: > 100 µM (inactive)

Q: And the GI50 (M14)?
A: > 100 µM (inactive)

Q: And the GI50 (CAKI-1)?
A: > 100 µM (inactive)

Q: What about the GI50 (NCI-H23) of the same compound?
A: > 100 µM (inactive)

Q: What about the GI50 (A498) of the same compound?
A: 46.6 µM (inactive)

Q: What about the GI50 (EKVX) of the same compound?
A: > 100 µM (inactive)

Q: What about the GI50 (Malme-3M) of the same compound?
A: > 100 µM (inactive)

Q: What about the GI50 (SR) of the same compound?
A: > 100 µM (inactive)

Q: And the GI50 (786-0)?
A: > 100 µM (inactive)

Q: What about the GI50 (HCT-15) of the same compound?
A: > 100 µM

Q: And the GI50 (MOLT-4)?
A: 65.3 µM (inactive)

Q: What about the GI50 (SW-620) of the same compound?
A: > 100 µM (inactive)

Q: And the GI50 (SF-295)?
A: > 100 µM (inactive)

Q: And the GI50 (CCRF-CEM)?
A: > 100 µM (inactive)

Q: What about the GI50 (NCI-H226) of the same compound?
A: 58.5 µM (inactive)

Q: What about the GI50 (OVCAR-3) of the same compound?
A: > 100 µM (inactive)

Q: What about the GI50 (NCI-H460) of the same compound?
A: > 100 µM (inactive)

Q: And the GI50 (TK-10)?
A: > 100 µM (inactive)

Q: And the GI50 (HL-60)?
A: > 100 µM (inactive)

Q: And the GI50 (RXF 393)?
A: > 100 µM (inactive)

Q: And the GI50 (RPMI-8226)?
A: > 100 µM (inactive)

Q: What about the GI50 (HOP-62) of the same compound?
A: > 100 µM (inactive)

Q: And the GI50 (SK-OV-3)?
A: > 100 µM (inactive)

Q: And the GI50 (A549)?
A: > 100 µM (inactive)

Q: And the GI50 (HCT-116)?
A: > 100 µM (inactive)

Q: And the GI50 (K562)?
A: > 100 µM (inactive)

Q: What about the GI50 (MDA-MB-231) of the same compound?
A: > 100 µM (inactive)

Q: And the GI50 (IGROV-1)?
A: > 100 µM (inactive)

Q: What about the GI50 (T47D) of the same compound?
A: 89.7 µM (inactive)

Q: What about the GI50 (SF-539) of the same compound?
A: > 100 µM (inactive)

Q: And the GI50 (SN12C)?
A: > 100 µM (inactive)

Q: What about the GI50 (COLO 205) of the same compound?
A: > 100 µM (inactive)

Q: What about the GI50 (LOX IMVI) of the same compound?
A: > 100 µM (inactive)

Q: And the GI50 (SF-268)?
A: > 100 µM (inactive)

Q: And the GI50 (ACHN)?
A: > 100 µM (inactive)

Q: What about the GI50 (SNB-75) of the same compound?
A: 48.4 µM (inactive)

Q: And the GI50 (PC-3)?
A: > 100 µM (inactive)

Q: And the GI50 (UACC-62)?
A: 83.2 µM (inactive)

Q: What about the GI50 (Hs-578T) of the same compound?
A: > 100 µM (inactive)

Q: What about the GI50 (SK-MEL-28) of the same compound?
A: > 100 µM (inactive)

Q: And the GI50 (SK-MEL-5)?
A: > 100 µM (inactive)

Q: What about the GI50 (SK-MEL-2) of the same compound?
A: > 100 µM (inactive)
